Calls of active or inactive are those of the source. No cut-off for these calls is given here.
Biological target: T1, Sex hormone-binding globulin (Homo sapiens) (UniProt P04278)
T1 sequence (whole entry): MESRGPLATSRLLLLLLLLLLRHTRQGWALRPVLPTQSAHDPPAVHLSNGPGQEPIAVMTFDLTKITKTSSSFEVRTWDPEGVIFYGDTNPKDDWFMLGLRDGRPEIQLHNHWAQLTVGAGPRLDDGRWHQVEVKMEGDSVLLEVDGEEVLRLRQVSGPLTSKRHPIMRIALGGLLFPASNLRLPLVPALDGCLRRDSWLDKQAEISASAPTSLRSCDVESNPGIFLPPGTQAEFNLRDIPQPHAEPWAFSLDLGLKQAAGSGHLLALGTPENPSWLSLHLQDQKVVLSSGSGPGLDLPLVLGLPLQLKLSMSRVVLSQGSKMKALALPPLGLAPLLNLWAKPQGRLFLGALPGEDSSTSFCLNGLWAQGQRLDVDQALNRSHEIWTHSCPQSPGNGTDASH
Test: Binding affinity to human sex hormone binding globulin

Activity: Active
Compound: COc1cc([C@@H]2O[C@@H](c3ccc(O)c(OC)c3)[C@H](CO)[C@H]2CO)ccc1O
